SMILES strings stand for the structures.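 Step 1: Grow cells in 96-well plates. Step 2: Expose to compound for 48 hours at 5 concentrations. Step 3: Interpolate endpoints linearly; if unreached, use highest concentration. At the GI50, growth is halved. The concentration for full growth arrest is given as TGI.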

These results are taken from PubChem BioAssay (NCI).

One test concerns DU-145 prostate. Kind of test: growth of human tumour cells (NCI), 48 h.
With `CCN(CC)CC(C)Nc1ccc([N+](=O)[O-])c2sc3ccccc3c(=O)c12` (stereo not given), the GI50 is 1.49 µM and the TGI was 9.79 µM.
Turning to `N=C(N)c1ccc(-c2ccc(-c3cc(Cl)cc(Cl)c3)o2)nc1`, the GI50 was 1.87 µM and the TGI is 3.37 µM.
In the case of `CCOC(=O)CSc1nc(N)c2c(-c3ccc(OC)c(OC)c3)c3c(nc2n1)CCCC3`, the TGI was > 100 µM.
Same read-out and setting: with `CNC(=O)OC(C)CN1c2ccccc2Sc2ccc(Cl)cc21` (stereo not given) the figure was > 10 µM.
On to `O=C(CCCCCCC(=O)Nc1ccc(N(CCCl)CCCl)cc1)NO`, for which the GI50 is 2.72 µM and the TGI came to 19.3 µM.
Compound `CN1CC[C@@]2(c3cccc(O)c3)CC(=O)/C(=C/c3ccccc3)[C@H]1C2` had a TGI of 29.3 µM.
The same measure, in the same setting: to `O=C(N/N=C(/c1ccccc1)C(F)(F)F)c1ccncc1` belongs > 100 µM; to `O=S(=O)(O)c1ccc2cccc(N=Nc3c(O)ccc4ccccc34)c2c1`, > 100 µM.
Turning to `COc1ccc2nc(-c3ccc(-c4noc(-c5cc(OC)c(OC)c(OC)c5)n4)cc3)[nH]c2c1`, the GI50 was 9.48 µM and the TGI was 28.3 µM.
The corresponding values for `COc1ccc(/C(=C2/O[C@@H]([C@H]3COC(C)(C)O3)[C@H]3OC(C)(C)O[C@@H]23)c2cc(OC)c(OC)c(OC)c2)cc1O` are 3.93 µM and > 100 µM.
Consider `Cn1c(=O)c2c(nc(-n3nc(-c4ccc(Cl)cc4)cc3N)n2C)n(C)c1=O`, for which the TGI is > 100 µM.
On the same count and under the same terms, to `N=c1c2c(C(N)=O)cn(C3OC(CO)C(O)C3O)c2ncn1O` (stereo not given) belongs 1.36 µM; to `Cc1nc(N)nc(N)c1-c1ccc(Cl)c(Cl)c1`, > 100 µM.
The same measure, in the same setting: to `C[C@]12CC[C@@H]3c4ccc(OP(=O)(O)O)cc4CC[C@H]3[C@@H]1CCC2=O` belongs > 100 µM; to `CCSCCC(N)C(=O)O` (stereo not given), > 100 µM; to `COc1ccc2nc(N/N=C/C(C)=N/Nc3cc(C)c4cc(OC)ccc4n3)cc(C)c2c1`, 34.8 µM.
In the case of `CN(C)CC(=O)Nc1ccc(Cn2nnc3c2C(=O)c2nnn(Cc4ccc(NC(=O)CN(C)C)cc4)c2C3=O)cc1`, the GI50 is 0.175 µM and the TGI was 0.337 µM.

A further test concerns HOP-62 NSCLC. The experiment in a line: growth of human tumour cells (NCI), 48 h.
Turning to `CCN(CC)CC(C)Nc1ccc([N+](=O)[O-])c2sc3ccccc3c(=O)c12` (stereo not given), the GI50 was 2.28 µM and the TGI is 12.3 µM.
For `CCOC(=O)CSc1nc(N)c2c(-c3ccc(OC)c(OC)c3)c3c(nc2n1)CCCC3`, the TGI was > 100 µM.
On the same count and under the same terms, to `CNC(=O)OC(C)CN1c2ccccc2Sc2ccc(Cl)cc21` (stereo not given) belongs > 10 µM.
Take `O=C(CCCCCCC(=O)Nc1ccc(N(CCCl)CCCl)cc1)NO`: the GI50 was 2.98 µM and the TGI is 13.5 µM.
Take `CN1CC[C@@]2(c3cccc(O)c3)CC(=O)/C(=C/c3ccccc3)[C@H]1C2`: the TGI was found to be 58.7 µM.
The same measure, in the same setting: to `O=C(N/N=C(/c1ccccc1)C(F)(F)F)c1ccncc1` belongs > 100 µM; to `ONc1ncnc2nc[nH]c12`, > 100 µM.
The same measure, in the same setting: to `CCCc1[nH]c(SCCCCCCCCSc2nc(-c3ccc(F)cc3)c(CCC)[nH]2)nc1-c1ccc(F)cc1` belongs > 100 µM.
Turning to `O=S(=O)(O)c1ccc2cccc(N=Nc3c(O)ccc4ccccc34)c2c1`, the TGI was > 100 µM.
With `COc1ccc2nc(-c3ccc(-c4noc(-c5cc(OC)c(OC)c(OC)c5)n4)cc3)[nH]c2c1`, the GI50 is 4.44 µM and the TGI was found to be 16.8 µM.
The corresponding values for `COc1ccc(/C(=C2/O[C@@H]([C@H]3COC(C)(C)O3)[C@H]3OC(C)(C)O[C@@H]23)c2cc(OC)c(OC)c(OC)c2)cc1O` are 10.9 µM and 34.7 µM.
The compound `Cn1c(=O)c2c(nc(-n3nc(-c4ccc(Cl)cc4)cc3N)n2C)n(C)c1=O` registered a TGI of 81.9 µM.
On to `N=c1c2c(C(N)=O)cn(C3OC(CO)C(O)C3O)c2ncn1O` (stereo not given), for which the TGI amounted to 0.873 µM.
Still for that read-out and setting: to `CCS(=O)(=O)Nc1ccc(Nc2c3ccccc3nc3ccccc23)c(OC)c1` belongs 1.21 µM.
Still for that read-out and setting: with `Cc1nc(N)nc(N)c1-c1ccc(Cl)c(Cl)c1` the figure was > 100 µM; with `Cc1cccc2nc3c(C(=O)NCCN(C)C)cccc3cc12`, 4.88 µM.
For the compound `C[C@]12CC[C@@H]3c4ccc(OP(=O)(O)O)cc4CC[C@H]3[C@@H]1CCC2=O`, the TGI is > 100 µM.
Still for that read-out and setting: with `CCSCCC(N)C(=O)O` (stereo not given) the figure was > 100 µM; with `COc1ccc2nc(N/N=C/C(C)=N/Nc3cc(C)c4cc(OC)ccc4n3)cc(C)c2c1`, 50.5 µM.

In a further test the test system is HT29 colon. The experiment in a line: growth of human tumour cells (NCI), 48 h.
For `CCN(CC)CC(C)Nc1ccc([N+](=O)[O-])c2sc3ccccc3c(=O)c12` (stereo not given), the GI50 was 2.58 µM and the TGI was > 33.2 µM.
The corresponding values for `N=C(N)c1ccc(-c2ccc(-c3cc(Cl)cc(Cl)c3)o2)nc1` are 1.76 µM and 3.69 µM.
Turning to `CCOC(=O)CSc1nc(N)c2c(-c3ccc(OC)c(OC)c3)c3c(nc2n1)CCCC3`, the TGI is > 100 µM.
Still for that read-out and setting: with `CNC(=O)OC(C)CN1c2ccccc2Sc2ccc(Cl)cc21` (stereo not given) the figure was > 10 µM.
As to `O=C(CCCCCCC(=O)Nc1ccc(N(CCCl)CCCl)cc1)NO`, the GI50 is 1.56 µM and the TGI came to 12.7 µM.
Regarding `CN1CC[C@@]2(c3cccc(O)c3)CC(=O)/C(=C/c3ccccc3)[C@H]1C2`, the TGI came to 13.5 µM.
Same read-out and setting: with `O=C(N/N=C(/c1ccccc1)C(F)(F)F)c1ccncc1` the figure was > 100 µM; with `ONc1ncnc2nc[nH]c12`, > 100 µM; with `CCCc1[nH]c(SCCCCCCCCSc2nc(-c3ccc(F)cc3)c(CCC)[nH]2)nc1-c1ccc(F)cc1`, > 100 µM.
Regarding `COc1ccc2nc(-c3ccc(-c4noc(-c5cc(OC)c(OC)c(OC)c5)n4)cc3)[nH]c2c1`, the GI50 is 2.7 µM and the TGI came to 15.2 µM.
